Reference: patent publication EP4397674A1, “CASPASE-2 INHIBITOR COMPOUNDS” (Kintsugi Therapeutics S.L., priority 2023, dated 2024)
Several values for one entry are separate records, joined by “and”; a condition that tells them apart may be missing. Equal entries are not always repeated.

Columns and labels:
Type in all cases: biochemical
caspase-2 [1] = target: T1, caspase-2 (Homo sapiens, UniProt P42575); assay: Enzymatic kinetic studies, determination of kobs/I inhibition parameter; design: made in house; details: for kobs/I: Caspase-2, pseudo-first-order conditions, substrate NH-ldc-hGlu-Thr(Bzl)-Ser-Asp-ACC (50uM), 37°C, dot = thousands separator
T1 sequence (P42575 170-333 limits assumed): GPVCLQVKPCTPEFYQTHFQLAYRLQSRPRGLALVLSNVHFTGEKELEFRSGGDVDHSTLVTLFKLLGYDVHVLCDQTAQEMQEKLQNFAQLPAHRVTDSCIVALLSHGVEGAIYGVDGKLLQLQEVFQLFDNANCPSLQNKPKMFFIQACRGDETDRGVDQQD
T1 sequence (P42575 348-452 limits assumed): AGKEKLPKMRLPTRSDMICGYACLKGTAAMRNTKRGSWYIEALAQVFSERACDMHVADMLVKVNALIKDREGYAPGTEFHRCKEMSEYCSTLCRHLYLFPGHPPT
Protocol: (§1) The measurement of kobs/l inhibition parameter (second order rate of enzyme inhibition) of synthesized inhibitors towards caspases-2, -3, and -8 was performed using a fMax spectrofluorimeter (Molecular Devices, Sunnyvale, CA, USA) operating in fluorescence kinetic mode in 96-well Corning (Corning, NY, USA) plates. Before kinetic analysis, all caspases were active site-titrated using the zVAD-fmk inhibitor (Cayman Chemical Company, Cat No. 14467). The caspases assay buffer was 10% w/v sucrose, 1M sodium citrate, 20 mM Pipes, 10 mM NaCl, 1 mM EDTA, and 10 mM DTT (pH = 7.3). Buffers were prepared at room temperature, and all kinetic assays were performed at 37°C. The kobs/l parameter was measured under pseudo-first-order kinetic conditions ([I] » [E]). Inhibitor (20uL) was diluted in a 96-well plate and mixed with the appropriate substrate (20uL); NH-ldc-hGlu-Thr(Bzl)-Ser-Asp-ACC (50uM) for caspase-2, Ac-DEVD-ACC (100uM) for caspase-3 and Ac-LEHD-ACC (100uM) for caspase-8. The ACC fluorescence was monitored using 355 nm (excitation) and 460 nm (emission) wavelengths. The substrate-inhibitor mixture (40uL in total) were pre-incubated at 37C for 15 min. At the same time in a separate tube, the caspase was preincubated in assay buffer at 37C, and after 15 min, the enzyme was added to wells (60uL per well, total reaction volume 100uL) and the fluorescence was monitored for 30min, starting immediately. Second-order rate of inhibition (kobs/l) was determined in at least three independent experiments and presented as an average value. GraphPad Prism 7 software was used for calculations (see figure 2).
(§2) The detailed protocol for the expression and purification of human apoptotic caspases can be found elsewhere (Stennicke, 1999).

caspase-8 [2] = target: T2, caspase-8 (Homo sapiens, UniProt Q14790); assay: as above; details: substrate Ac-LEHD-ACC (100uM), 37°C, dot = thousands separator; for kobs/I: pseudo-first-order conditions
T2 construct: made in house
Protocol: as §1, §2

caspase-3 [3] = target: T3, caspase-3 (Homo sapiens, UniProt P42574); assay: as above; details: substrate Ac-DEVD-ACC (100uM), 37°C, dot = thousands separator; for kobs/I: pseudo-first-order conditions; for kinact/KI: 0.5 h, pH 7.3, pseudo-first-order conditions
T3 construct: made in house
T3 sequence (P42574 29-175 limits assumed): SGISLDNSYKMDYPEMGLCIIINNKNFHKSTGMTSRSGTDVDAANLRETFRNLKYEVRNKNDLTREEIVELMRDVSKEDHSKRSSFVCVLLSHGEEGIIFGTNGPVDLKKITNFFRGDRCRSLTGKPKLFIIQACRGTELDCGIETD
T3 sequence (P42574 176-277 limits assumed): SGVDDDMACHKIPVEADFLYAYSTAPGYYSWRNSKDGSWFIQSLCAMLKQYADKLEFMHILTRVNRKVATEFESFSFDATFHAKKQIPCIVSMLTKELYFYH
Protocol: as §1, §2

caspase-2 [4] = target: T1, caspase-2; assay: Kinetic assay of individual fluorogenic substrates NH-Idc-P4-P3-Dab-Asp-ACC (Example 4); details: substrate 10µM, caspase-2 10nM, 37°C; relative to NH-Idc-hGlu-Glu(Chx)-Dab-Asp-ACC
Protocol: Caspase-2 substrates were synthesized according to standard SPPS procedure, purified on HPLC, lyophilized and dissolved in DMSO to the final concentration of 20mM (Poreba et al. 2014, CDD). In particular, the following caspase-2 substrates were synthesized to carry out the present example: [drawing 66] [drawing 67] [drawing 68] [drawing 69] [drawing 70] [drawing 71]
Prior to kinetic assay, substrates (several µL) were diluted in DMSO to the […] (working concentration). Next, 1µL of such substrate was spot into the well of 96-well plate following by the addition of […] of caspase-2 in buffer. Immediately after the enzyme was added, the plate was placed in fluorescence plate reader and the fluorescence was measured over the time in a kinetic mode (excitation 355nm, emission 460nm). The liberation of fluorescence was carried out for 30 minutes, and only linear portion of the plot was taken for analysis to calculate the rate of the reaction. The rate of best cleaved substrate was set to 100% and all other substrates were adjusted accordingly (cleavage rate, %). The final concentration of substrate was 10µM, and the final concentration of caspase-2 was 10nM. The caspase-2 assay buffer was 20mM Pipes, 100mM NaCl, sucrose 10% (w/v), 10mM DTT, pH 7.2-7.4. The caspase-2 was preincubated in buffer at 37°C for 15 min before added to the substrate.

caspase-2 [5] = target: T1, caspase-2; assay: P2 substrates screening, rate of substrate hydrolysis (ACC fluorescence); design: made in house
Protocol: (§3) The detailed protocol for the expression and purification of human apoptotic caspases can be found elsewhere (Stennicke, 1999). […] The ACC fluorescence was monitored using 355 nm (excitation) and 460 nm (emission) wavelengths. Before kinetic analysis, all caspases were active site-titrated using the zVAD-fmk inhibitor (Cayman Chemical Company, Cat No. 14467). […] Buffers were prepared at room temperature, and all kinetic assays were performed at 37°C. […] The total volume in a single well was […]. The total assay time was 30 min, but only the linear portion of the fluorescence progress curve was taken for the analysis. The kinetic data were analyzed using Graph Pad Prism software. […]

caspase-8 [6] = target: T2, caspase-8; assay: as above; details: substrate 10mM (so in the source), caspase-8 40nM, 37°C, rate per 10nM of caspase
Protocol: as §3

caspase-3 [7] = target: T3, caspase-3; assay: as above; details: substrate 10mM (so in the source), caspase-3 15nM, 37°C, rate per 10nM of caspase
Protocol: as §3

T2 sequence (Q14790 217-374 limits assumed): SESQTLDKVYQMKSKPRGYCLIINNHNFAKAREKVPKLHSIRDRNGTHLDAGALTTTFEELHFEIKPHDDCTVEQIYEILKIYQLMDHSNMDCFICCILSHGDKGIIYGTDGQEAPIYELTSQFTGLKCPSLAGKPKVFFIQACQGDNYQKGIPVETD
T2 sequence (Q14790 385-479 limits assumed): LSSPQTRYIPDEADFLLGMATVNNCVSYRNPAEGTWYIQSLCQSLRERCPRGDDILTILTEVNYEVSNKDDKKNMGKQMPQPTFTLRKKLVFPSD

RFU/s, %, average (cleavage rate, best substrate set to 100%) (caspase-2 [4])	Molecule	further results
–	Cc1cccc(C)c1C(=O)OCC(=O)[C@H](CC(=O)O)NC(=O)[C@H](CCCCN)NC(=O)[C@@H](NC(=O)[C@H](CCCC(=O)O)NC(=O)[C@@H]1Cc2ccccc2N1)[C@@H](C)OCc1ccccc1 [NH-Idc-hGlu-Thr(Bzl)-Lys-Asp-AOMK]	kobs/I (caspase-2 [1]): 400.000 M⁻¹ s⁻¹; kobs/I (caspase-8 [2]): 9.900 M⁻¹ s⁻¹; kobs/I (caspase-3 [3]): 2.570 M⁻¹ s⁻¹
–	Cc1cccc(C)c1C(=O)OCC(=O)[C@H](CC(=O)O)NC(=O)[C@H](CCCN)NC(=O)[C@@H](NC(=O)[C@H](CCCC(=O)O)NC(=O)[C@@H]1Cc2ccccc2N1)[C@@H](C)OCc1ccccc1 [NH-Idc-hGlu-Thr(Bzl)-Orn-Asp-AOMK]	kobs/I (caspase-2 [1]): 390.000 M⁻¹ s⁻¹; kobs/I (caspase-8 [2]): 2.300 M⁻¹ s⁻¹; kinact/KI (caspase-3 [3]): 636 M⁻¹ s⁻¹
0,7%	NH-Idc-hLeu-Glu(Chx)-Dab-Asp-ACC	–
0,0%	NH-Idc-hLeu-Glu-Dab-Asp-ACC	–
5,6% and 6,5%	NH-Idc-hGlu-Val-Dab-Asp-ACC	–
75,2% and 72,5%	NH-Idc-hGlu-Glu-Dab-Asp-ACC	–
–	NH-ldc-hGlu-Thr(Bzl)-Ser-Asp-ACC	Casp-2 vs Casp-3 (caspase-2 [5]; ratio of hydrolysis rates caspase-2/caspase-3): 38,49; Casp-2 vs Casp-8 (caspase-2 [5]; ratio of hydrolysis rates caspase-2/caspase-8): 27,82; rate of substrate hydrolysis, Caspase-2 (caspase-2 [5]; substrate 10mM (so in the source), caspase-2 5nM, 37°C, rate per 10nM of caspase): 182,81 RFU/s/10nM; rate of substrate hydrolysis, Caspase-8 (caspase-8 [6]): 6,57 RFU/s/10nM; rate of substrate hydrolysis, Caspase-3 (caspase-3 [7]): 4,75 RFU/s/10nM
0,0%	NH-Idc-Ile-Abu-Dab-Asp-ACC	–
76,1%	NH-Idc-hGlu-Glu(Me)-Dab-Asp-ACC	–
0,2%	NH-Idc-Asp-Glu(Chx)-Dab-Asp-ACC	–
6,3%	NH-Idc-Ile-Glu(Chx)-Dab-Asp-ACC	–
0,2%	NH-Idc-Asp-Glu-Dab-Asp-ACC	–
0,0%	NH-Idc-Asp-Thr(Bzl)-Dab-Asp-ACC	–
5,9% and 4,6%	NH-Idc-hGlu-Thr(Bzl)-Dab-Asp-ACC	–
–	NH-Idc-hGlu-Thr(Bzl)-Dap-Asp-AOMK	kobs/I (caspase-2 [1]): 372.000 M⁻¹ s⁻¹; SELECTIVITY Caspase2 vs.Caspase3, C2/C3 kobs/I (caspase-2 [1]; division of kobs/I values, caspase-2/caspase-3): 44.8; SELECTIVITY Caspase2 vs.Caspase8, C2/C8 kobs/I (caspase-2 [1]; division of kobs/I values, caspase-2/caspase-8): 70.2; kobs/I (caspase-8 [2]): 5.300 M⁻¹ s⁻¹; kobs/I (caspase-3 [3]): 8.300 M⁻¹ s⁻¹
–	Cc1cccc(C)c1C(=O)OCC(=O)[C@H](CC(=O)O)NC(=O)[C@H](CCN)NC(=O)[C@@H](NC(=O)[C@H](CCCC(=O)O)NC(=O)[C@@H]1Cc2ccccc2N1)[C@@H](C)OCc1ccccc1 [NH-Idc-hGlu-Thr(Bzl)-Dab-Asp-AOMK]	kobs/I (caspase-2 [1]): 342.000 M⁻¹ s⁻¹; kinact/KI (caspase-8 [2]; 0.5 h, pH 7.3, pseudo-first-order conditions): 415 M⁻¹ s⁻¹; kinact/KI (caspase-3 [3]): 443 M⁻¹ s⁻¹

RFU/s, %, average (cleavage rate, best substrate set to 100%) (caspase-2 [4])	Molecule	further results
0,0%	NH-Idc-Leu-Thr(Bzl)-Dab-Asp-ACC	–
0,0%	NH-Idc-hLeu-Thr(Bzl)-Dab-Asp-ACC	–
0,0%	NH-Idc-Ile-Thr(Bzl)-Dab-Asp-ACC	–
0,8%	NH-Idc-Ile-Glu-Dab-Asp-ACC	–
0,0%	NH-Idc-Ile-Val-Dab-Asp-ACC	–
100,0% and 91,7%	NH-Idc-hGlu-Glu(Chx)-Dab-Asp-ACC	–
0,0%	NH-Idc-hLeu-Val-Dab-Asp-ACC	–
–	Cc1cccc(C)c1C(=O)OCC(=O)[C@H](CC(=O)O)NC(=O)[C@H](CO)NC(=O)[C@@H](NC(=O)[C@H](CCCC(=O)O)NC(=O)[C@@H]1Cc2ccccc2N1)[C@@H](C)OCc1ccccc1 [NH-Idc-hGlu-Thr(Bzl)-Ser-Asp-AOMK, reference compound]	kobs/I (caspase-2 [1]): 665.000 M⁻¹ s⁻¹; kobs/I (caspase-8 [2]): 11.600 M⁻¹ s⁻¹; kobs/I (caspase-3 [3]): 21.000 M⁻¹ s⁻¹
0,0%	NH-Idc-Leu-Val-Dab-Asp-ACC	–
26,2%	NH-Idc-hGlu-Abu-Dab-Asp-ACC	–
0,3%	NH-Idc-Asp-Val-Dab-Asp-ACC	–
0,0%	NH-Idc-Leu-Abu-Dab-Asp-ACC	–
0,0%	NH-Idc-Asp-Abu-Dab-Asp-ACC	–
6,9%	NH-Idc-Leu-Glu(Chx)-Dab-Asp-ACC	–
0,0%	NH-Idc-hLeu-Abu-Dab-Asp-ACC	–
0,7%	NH-Idc-Leu-Glu-Dab-Asp-ACC	–
